Consider four compounds from patent US12617767B2, “Crystalline forms of somatostatin modulators” (Crinetics Pharmaceuticals, Inc., priority 2019, dated 2026).

Converted amounts (≈) assume the structure as drawn. Like-named read-outs stand apart in the source and are kept apart here. A value given as a limit tells only on which side of the number the result lay.

Format in all cases: physicochemical
Data set [1] is described as follows: Slurries of amorphous material (dissolution at room temperature). Conditions: room temperature (20-23° C.). The protocol: About 22 mg of amorphous material was dispensed into vials and 0.5 mL (ca. 23 volumes) of the chosen solvent was added, and the mixture was stirred at room temperature (20-23° C.). A solution was formed in water and water saturated MeOAc. Additional solid was added to these solutions, but when a solution remained after roughly doubling the original solid quantity (ca. 90 mg/mL), further addition was ceased. All the other samples remained as slurries. After slurrying for 4 hours, an aliquot was taken for XRPD analysis of the slurry solids from all the samples except the water and water saturated MeOAc samples as they remained solutions. The mixtures continued to stir at room temperature overnight then the remaining slurry solids were collected (total slurry time of about 24 hours).

A short description of data set [2]: Equilibrium solubility in simulated fluids and water at 37° C. Particulars: for solubility at 24 h: above calibration range. The protocol: The solubility Compound A⋅2MSA, Patterns A, B and I, was measured in water, fasted state simulated gastric fluid (FaSSGF) and fasted state simulated intestinal fluid (FaSSIF) at 37° C. by slurrying in the respective media for 24 hours. 1.5 mL of the fluid was stirred at 37° C. About 5 mg of the specified solid was added to FaSSIF and a thin slurry was immediately formed. As a test, approximately 80 and 60 mg of Pattern A was added to 1.5 mL of water and FaSSGF, respectively without formation of a slurry. Therefore, about 10 mg of the desired Pattern was added to water and FaSSGF solutions. The samples were allowed to stir at 37° C. for 24 hrs. The stir bars were removed from the FaSSIF vials and the solids allowed to settle for 0.5 hours at 37° C. The supernatant/solutions were syringe filtered and recovered for analysis by HPLC as well as for pH measurement.

Data set [3] is described as follows: Karl-Fischer titration for water determination. Here is the method:
Karl-Fischer titration for water determination was done using a Mettler Toledo C20S Coulometric KF Titrator equipped with a current generator cell with a diaphragm, and a doubleplatinum-pin electrode. Aquastar™ CombiCoulomat fritless reagent was used in both the anode and cathode compartments. Samples of approximately 0.03-0.10 g were dissolved in the anode compartment and titrated until the solution potential dropped below 100 mV. Hydranal 1 wt. % water standard is used for validation prior to sample analysis.

A short description of data set [4]: Humidity stress tests (XRPD, HPLC purity). Particulars: 40° C./75% RH/7 days. Here is the method:
Pattern A was heated to 277° C., monitored by DSC. […] This material was exposed to ˜90% RH at room temperature and slurried in ACN and after 4 hours the Patterns B and I were recovered, respectively.
About 15 mg of Compound A⋅2MSA (Pattern A) was loaded into a 4 mL vial and the opening was covered with a Kimwipe. This was placed in a 20 mL vial with saturated aqueous K2SO4 and sealed to provide an environment of 94-96% Relative Humidity (RH) at room temperature (RT).
About 10 mg of Compound A⋅2MSA Pattern A and Pattern B were loaded into separate 4 mL vials. These were placed in 20 mL vials with saturated aqueous NaCl and sealed to provide an environment of 75% RH at 40° C. […] The same 1 week study was done with Pattern C (+I) and Pattern I, both remained stable by XRPD.

A short description of data set [5]: Dynamic Vapor Sorption (DVS). Here is the method:
Dynamic Vapor Sorption (DVS) was done using a DVS Intrinsic 1. The sample is loaded into a sample pan and suspended from a microbalance. A typical sample mass for DVS measurement is 25 mg. Nitrogen gas bubbled through distilled water provides the desired relative humidity.
A typical measurement comprises the steps: • 1—Equilibrate at 50% RH • 2-50% to 2%. (50%, 40%, 30%, 20%, 10% and 2%) • a. Hold minimum of 5 mins and maximum of 240 minutes at each humidity. The pass criteria is less than 0.002% change • 3-2% to 95% (2%, 10%, 20%, 30%, 40%, 50%, 60%, 70%, 80%, 90%, 95%) • a. Hold minimum of 5 mins and maximum of 240 minutes at each humidity. The pass criteria is less than 0.002% change • 4-95% to 2% (95%, 80%, 70%, 60%, 50%, 40%, 30%, 20%, 10%, 2%) • a. Hold minimum of 5 mins and maximum of 240 minutes at each humidity. The pass criteria is less than 0.002% change • 5-2% to 50% (2%, 10%, 20%, 30%, 40%, 50%) • a. Hold minimum of 5 mins and maximum of 240 minutes at each humidity. The pass criteria is less than 0.002% change Dynamic Vapor Sorption Isotherm Plots of Solid Forms of Compound A⋅2MSA

Data set [6] is described as follows: Stability of XRPD pattern on drying. Conditions: solids from short term slurries; vacuum oven at 50° C., minimum of 4 hours; dimesylate. The protocol:
Short term slurries were carried out at two temperatures in 14 solvents. About 25 mg solid was added to a 2 mL vial followed by 0.70 mL of solvent. If all solids dissolved, more solid was added until a slurry was formed within reason. Slurries were stirred at constant temperature for four days (ambient temperature, 21-23° C.; or high temperature, 50° C.). After stirring for four days, solids were allowed to settle and were then recovered for XRPD analysis. XRPD analysis was performed on the wet cake, and if a new pattern was observed, the sample was dried in a vacuum oven at 50° C. for a minimum of 4 hours, then the dried sample was analyzed by XRPD.
Stability on Drying: A sample of Pattern B was prepared on an XRPD sample holder and analysed by XRPD to create a baseline. The disk was then left in a vacuum oven at 50° C. under static vacuum for 3 days. On the third day, the sample was removed from the oven and the “dry” pattern was recorded immediately.
(§1) Compound A⋅2MSA (Pattern A) was slurried in EtOH overnight at room temperature (ca. 16 hours). […] The bulk was dried in a vacuum oven at 50° C. under dynamic vacuum for 4.5 hours. The dried solids were removed from the oven and a “dry” XRPD analysis was collected.

Data set [7] is described as follows: Storage at ambient conditions (XRPD). Particulars: bulk, 6 days at ambient conditions; dimesylate. Here is the method: Characterization after storage under ambient conditions: Pattern B was left at ambient conditions (21-22° C., 10-40% RH) for a week then characterized by)(RFD, TGA/DSC, and water content measured by Karl-Fischer titration. […] The water content was confirmed by KF titration which yielded a value of 4.20 wt. %.
Compound A⋅2MSA (Pattern A, 0.2622 g) was added to a 20 mL vial with a stir bar. Fifteen volumes (3.93 mL) of EtOH was added and the slurry was stirred overnight (˜20 hours). The slurry was sampled to confirm the correct pattern was generated, then the solids were collected by filtration. The resultant yellow solid was dried in a vacuum oven at 50° C. under dynamic vacuum for 2 hours, then under static vacuum overnight (˜16 hours) to yield 0.2015 g (77% yield). The in-situ sample drawn was dried for 3 hours then the solid was used for characterization by solution ^1H-NMR spectroscopy and simultaneous TGA/DSC. The bulk was dried overnight and used for stand-alone DSC, and thermal treatment.
as §1
Compound A⋅2MSA (Pattern A, 0.2659 g) was added to a 20 mL vial with a stir bar. Twenty-five volumes (6.65 mL) of ACN was added and the slurry was stirred overnight (˜20 hours). The slurry was sampled to confirm the correct pattern was generated, then the solids were collected by filtration. The resultant yellow solid was dried in a vacuum oven at 50° C. under dynamic vacuum for 2 hours, then under static vacuum overnight (˜16 hours) to yield 0.2255 g (85% yield). The sample drawn was dried for 3 hours then the solid was used for characterization by solution ^1H-NMR spectroscopy and simultaneous TGA/DSC. The bulk was dried overnight and used for stand-alone DSC.

With `CS(=O)(=O)O.CS(=O)(=O)O.N#Cc1cccc(-c2ccc3ncc(-c4cc(F)cc(F)c4)c(N4CCC(N)CC4)c3c2)c1O` [Amorphous Compound A⋅2MSA, 3-(4-(4-aminopiperidin-1-yl)-3-(3,5-difluorophenyl)quinolin-6-yl)-2-hydroxybenzonitrile dimesylate], the “concentration at which a solution remained” value in data set [1] (water saturated MeOAc) and in data set [1] (water) was more than 90000 µg/mL throughout.

Consider `N#Cc1cccc(-c2ccc3ncc(-c4cc(F)cc(F)c4)c(N4CCC(N)CC4)c3c2)c1O` [Compound A, 3-(4-(4-aminopiperidin-1-yl)-3-(3,5-difluorophenyl)quinolin-6-yl)-2-hydroxybenzonitrile], for which the “pH (24 hr)” value is given as 1.82 in data set [2] (FaSSGF (pH 1.70)), 6.11 in data set [2] (FaSSIF (pH 6.48)) and 2.71 in data set [2] (water). The comments entry in data set [2] (FaSSGF (pH 1.70), 24 hrs) is given as “dissolved”; in data set [2] (FaSSIF (pH 6.48), 24 hrs) it was “disproportionated”; in data set [2] (water, 24 hrs) it was “dissolved”. In addition, the solubility at 24 h in data set [2] (FaSSGF, 37 °C, pH 1.7, fassgf or other biorelevant, thermodynamic from solid, FaSSGF (pH 1.70), 24 hrs, mg of Compound A (free base), read-out: Concentration) is more than 10300 µg/mL; in data set [2] (water, 37 °C, water, thermodynamic from solid, water, 24 hrs, mg of Compound A (free base), read-out: Concentration), more than 9770 µg/mL. The solubility thermodynamic at 24 h in data set [2] (FaSSIF, 37 °C, pH 6.48, fassif, thermodynamic from solid, FaSSIF (pH 6.48), 24 hrs, mg of Compound A (free base), read-out: Concentration) is 9 µg/mL (≈ 0.0197 mM). Also, the “Water Content” value in data set [3] amounted to 1.5% w/w.

Regarding `CS(=O)(=O)O.CS(=O)(=O)O.N#Cc1cccc(-c2ccc3ncc(-c4cc(F)cc(F)c4)c(N4CCC(N)CC4)c3c2)c1O` [C + I, 3-(4-(4-aminopiperidin-1-yl)-3-(3,5-difluorophenyl)quinolin-6-yl)-2-hydroxybenzonitrile dimesylate], in data set [4], the “Output XRPD” value is on record as “C + I”.

Consider `CS(=O)(=O)O.CS(=O)(=O)O.N#Cc1cccc(-c2ccc3ncc(-c4cc(F)cc(F)c4)c(N4CCC(N)CC4)c3c2)c1O` [Pattern I, 3-(4-(4-aminopiperidin-1-yl)-3-(3,5-difluorophenyl)quinolin-6-yl)-2-hydroxybenzonitrile dimesylate], for which, in data set [5] (2-95% RH, dimesylate), the “XRPD form after the DVS experiment” value is on record as “converted to Pattern B”. Moreover, the “reversible water uptake (DVS)” value in data set [5] (between 2% and 95% Relative Humidity (RH), dimesylate) was determined as 9.1 % w/w. Also, the “water uptake (DVS)” value in data set [5] (between 15 and 75% RH) amounted to 2.5 % w/w. For the same compound, in data set [5] (over the 2-95% RH range), the “total mass difference on the desorption segment (DVS)” value was 4.6% and the “total mass difference on the sorption segment (DVS)” value amounted to 9.1%. Further, the “mass change (DVS)” value in data set [5] (range of 15-75% RH) is recorded as 2.5 wt. %. In addition, in data set [6], the “XRPD pattern upon drying” value is on record as “stable upon drying”. Besides, in data set [3] (dimesylate), the “Water Content” value is recorded as 0.29% w/w. Moreover, the “XRPD pattern after storage at ambient conditions” value in data set [7] is given as “a pattern with additional peaks”.
